# Measurements from ChEMBL document CHEMBL1201862, “PubChem BioAssay data set” (2004).
#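 Briefly, cells in 96-well plates were exposed to five compound concentrations for 48 h, and endpoints were estimated by linear interpolation. The concentration for 50% growth inhibition is given as GI50.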 The source made the active and inactive calls. No stated cut-off is given here; in the data, active = GI50 up to about 1.1 µM and inactive = higher.
# What was measured:
# Experiment in all cases: NCI anticancer screen, dose series, 48 h
# U-251 = system: U-251
# NCI-H226 = system: NCI-H226
# NCI-H23 = system: NCI-H23
# UACC-257 = system: UACC-257
# SW-620 = system: SW-620
# M19-MEL = system: M19-MEL
# SK-MEL-2 = system: SK-MEL-2
# HCT-15 = system: HCT-15
# M14 = system: M14
# NCI-H522 = system: NCI-H522
# MOLT-4 = system: MOLT-4
# TK-10 = system: TK-10
# SNB-19 = system: SNB-19
# OVCAR-8 = system: OVCAR-8
# RXF 393 = system: RXF 393
# LOX IMVI = system: LOX IMVI
# RPMI-8226 = system: RPMI-8226
# K562 = system: K562
# SK-MEL-28 = system: SK-MEL-28
# KM12 = system: KM12
# ACHN = system: ACHN
# NCI-H460 = system: NCI-H460
# SF-268 = system: SF-268
# SR = system: SR
# A498 = system: A498
# HCT-116 = system: HCT-116
# OVCAR-3 = system: OVCAR-3
# HT-29 = system: HT-29
# LXFL 529 = system: LXFL 529
# KM-20L2 = system: KM-20L2
# OVCAR-4 = system: OVCAR-4
# SNB-75 = system: SNB-75
# SN12C = system: SN12C
# A549 = system: A549
# Malme-3M = system: Malme-3M
# HL-60 = system: HL-60
# SF-295 = system: SF-295
# CAKI-1 = system: CAKI-1
# DMS-273 = system: DMS-273
# 786-0 = system: 786-0
# UO-31 = system: UO-31
# CCRF-CEM = system: CCRF-CEM
# OVCAR-5 = system: OVCAR-5
# SK-OV-3 = system: SK-OV-3
# EKVX = system: EKVX
# SF-539 = system: SF-539
# UACC-62 = system: UACC-62
# COLO 205 = system: COLO 205
# SK-MEL-5 = system: SK-MEL-5
# SNB-78 = system: SNB-78
# HOP-18 = system: HOP-18
# HOP-92 = system: HOP-92
# HOP-62 = system: HOP-62
# HCC 2998 = system: HCC 2998
# DMS-114 = system: DMS-114
# IGROV-1 = system: IGROV-1
# BT-549 = system: BT-549
# NCI/ADR-RES = system: NCI/ADR-RES
# T47D = system: T47D
# DU-145 = system: DU-145
# MDA-MB-231 = system: MDA-MB-231
# PC-3 = system: PC-3
# MCF7 = system: MCF7
# MDA-N = system: MDA-N
# MDA-MB-435 = system: MDA-MB-435
# Hs-578T = system: Hs-578T
smiles,measurement,setting,value
[N-]=[N+]=Nc1ccc(CCN2CCN(c3cccc(C(F)(F)F)c3)CC2)cc1I,GI50,U-251,> 100 µM (inactive)
same,GI50,NCI-H226,> 100 µM (inactive)
same,GI50,NCI-H23,46.6 µM (inactive)
same,GI50,UACC-257,96.8 µM (inactive)
same,GI50,SW-620,70.3 µM (inactive)
same,GI50,M19-MEL,83 µM (inactive)
same,GI50,SK-MEL-2,38.4 µM (inactive)
same,GI50,HCT-15,25.2 µM
same,GI50,M14,> 100 µM (inactive)
same,GI50,NCI-H522,27.7 µM (inactive)
same,GI50,MOLT-4,40.4 µM (inactive)
same,GI50,TK-10,> 100 µM (inactive)
same,GI50,SNB-19,> 100 µM (inactive)
same,GI50,OVCAR-8,> 100 µM (inactive)
same,GI50,RXF 393,33.1 µM (inactive)
same,GI50,LOX IMVI,> 100 µM (inactive)
same,GI50,RPMI-8226,13 µM (inactive)
same,GI50,K562,52.6 µM (inactive)
same,GI50,SK-MEL-28,> 100 µM (inactive)
same,GI50,KM12,43.8 µM (inactive)
same,GI50,ACHN,> 100 µM (inactive)
same,GI50,NCI-H460,62.4 µM (inactive)
same,GI50,SF-268,> 100 µM (inactive)
same,GI50,SR,35.1 µM (inactive)
same,GI50,A498,> 100 µM (inactive)
same,GI50,HCT-116,71.1 µM (inactive)
same,GI50,OVCAR-3,78.9 µM (inactive)
same,GI50,HT-29,29.4 µM (inactive)
same,GI50,LXFL 529,50 µM (inactive)
same,GI50,KM-20L2,31.3 µM (inactive)
same,GI50,OVCAR-4,> 100 µM (inactive)
same,GI50,SNB-75,41.7 µM (inactive)
same,GI50,SN12C,49 µM (inactive)
same,GI50,A549,95.7 µM (inactive)
same,GI50,Malme-3M,> 100 µM (inactive)
same,GI50,HL-60,12.8 µM (inactive)
same,GI50,SF-295,> 100 µM (inactive)
same,GI50,CAKI-1,40.1 µM (inactive)
same,GI50,DMS-273,72.6 µM (inactive)
same,GI50,786-0,> 100 µM (inactive)
same,GI50,UO-31,21.1 µM (inactive)
same,GI50,CCRF-CEM,54.1 µM (inactive)
same,GI50,OVCAR-5,34 µM (inactive)
same,GI50,SK-OV-3,> 100 µM (inactive)
same,GI50,EKVX,> 100 µM (inactive)
same,GI50,SF-539,> 100 µM (inactive)
same,GI50,UACC-62,> 100 µM (inactive)
same,GI50,COLO 205,> 100 µM (inactive)
same,GI50,SK-MEL-5,65.8 µM (inactive)
same,GI50,SNB-78,> 100 µM (inactive)
CC(C)C(=O)CC(c1ccc(Cl)cc1)N1N=C(C(C)C)CC1c1ccc(Cl)cc1 (stereo unspecified),GI50,NCI-H226,> 100 µM (inactive)
same,GI50,NCI-H23,22.6 µM (inactive)
same,GI50,SW-620,37.2 µM (inactive)
same,GI50,SK-MEL-2,> 51.5 µM (inactive)
same,GI50,NCI-H522,< 0.01 µM (active)
same,GI50,TK-10,> 100 µM (inactive)
same,GI50,LOX IMVI,< 0.01 µM (active)
same,GI50,SK-MEL-28,40.7 µM (inactive)
same,GI50,KM12,40.6 µM (inactive)
same,GI50,HOP-18,< 0.01 µM (active)
same,GI50,HT-29,14.6 µM (inactive)
same,GI50,LXFL 529,98.4 µM (inactive)
same,GI50,SNB-75,86.9 µM (inactive)
same,GI50,SN12C,< 0.01 µM (active)
same,GI50,Malme-3M,< 0.01 µM (active)
same,GI50,DMS-273,< 0.01 µM (active)
same,GI50,HOP-92,> 86.3 µM (inactive)
same,GI50,SK-OV-3,< 0.01 µM (active)
same,GI50,EKVX,29.5 µM (inactive)
same,GI50,HOP-62,70 µM (inactive)
same,GI50,SNB-78,5.97 µM (inactive)
CCOc1ccccc1NC(=O)C(=O)C1C(=O)Nc2ccccc2[S+]1[O-] (stereo unspecified),GI50,U-251,> 100 µM (inactive)
same,GI50,HCC 2998,> 100 µM (inactive)
same,GI50,SK-MEL-2,> 100 µM (inactive)
same,GI50,HCT-15,> 100 µM
same,GI50,M14,> 100 µM (inactive)
same,GI50,NCI-H522,> 100 µM (inactive)
same,GI50,MOLT-4,> 100 µM (inactive)
same,GI50,RXF 393,> 100 µM (inactive)
same,GI50,RPMI-8226,> 100 µM (inactive)
same,GI50,K562,> 100 µM (inactive)
same,GI50,SK-MEL-28,> 100 µM (inactive)
same,GI50,HOP-18,> 100 µM (inactive)
same,GI50,NCI-H460,> 100 µM (inactive)
same,GI50,DMS-114,> 100 µM (inactive)
same,GI50,SF-268,> 100 µM (inactive)
same,GI50,HCT-116,> 100 µM (inactive)
same,GI50,OVCAR-3,> 100 µM (inactive)
same,GI50,LXFL 529,> 100 µM (inactive)
same,GI50,A549,> 100 µM (inactive)
same,GI50,Malme-3M,> 100 µM (inactive)
same,GI50,HL-60,> 100 µM (inactive)
same,GI50,DMS-273,> 100 µM (inactive)
same,GI50,786-0,> 100 µM (inactive)
same,GI50,UO-31,> 100 µM (inactive)
same,GI50,CCRF-CEM,> 100 µM (inactive)
same,GI50,SK-OV-3,> 100 µM (inactive)
same,GI50,SNB-78,> 100 µM (inactive)
Cc1cccc2c1NC(=O)/C2=N\Nc1ccccc1[N+](=O)[O-],GI50,U-251,2.37 µM (inactive)
same,GI50,NCI-H226,10.3 µM (inactive)
same,GI50,IGROV-1,2.37 µM (inactive)
same,GI50,NCI-H23,6.67 µM (inactive)
same,GI50,UACC-257,13.8 µM (inactive)
same,GI50,SW-620,9.82 µM (inactive)
same,GI50,HCC 2998,7.11 µM (inactive)
same,GI50,SK-MEL-2,16.7 µM (inactive)
same,GI50,BT-549,20.4 µM (inactive)
same,GI50,HCT-15,15.3 µM
same,GI50,M14,19.4 µM (inactive)
same,GI50,NCI-H522,0.871 µM (active)
same,GI50,MOLT-4,21.2 µM (inactive)
same,GI50,TK-10,6.84 µM (inactive)
same,GI50,NCI/ADR-RES,4.74 µM (inactive)
same,GI50,SNB-19,30.5 µM (inactive)
same,GI50,OVCAR-8,3.85 µM (inactive)
same,GI50,RXF 393,3.66 µM (inactive)
same,GI50,LOX IMVI,3.64 µM (inactive)
same,GI50,RPMI-8226,10 µM (inactive)
same,GI50,K562,17.5 µM (inactive)
same,GI50,T47D,8.83 µM (inactive)
same,GI50,SK-MEL-28,37.3 µM (inactive)
same,GI50,KM12,6.93 µM (inactive)
same,GI50,ACHN,2.97 µM (inactive)
same,GI50,NCI-H460,6.9 µM (inactive)
same,GI50,SF-268,6.04 µM (inactive)
same,GI50,DU-145,17.7 µM (inactive)
same,GI50,SR,2.7 µM (inactive)
same,GI50,A498,19.3 µM (inactive)
same,GI50,HCT-116,6.82 µM (inactive)
same,GI50,OVCAR-3,8.13 µM (inactive)
same,GI50,MDA-MB-231,2.58 µM (inactive)
same,GI50,HT-29,4.35 µM (inactive)
same,GI50,OVCAR-4,4.05 µM (inactive)
same,GI50,PC-3,10.9 µM (inactive)
same,GI50,SNB-75,11.1 µM (inactive)
same,GI50,SN12C,9.89 µM (inactive)
same,GI50,A549,4.49 µM (inactive)
same,GI50,Malme-3M,9.64 µM (inactive)
same,GI50,HL-60,78.5 µM (inactive)
same,GI50,SF-295,4.24 µM (inactive)
same,GI50,CAKI-1,8.09 µM (inactive)
same,GI50,MCF7,4.6 µM (inactive)
same,GI50,786-0,4.27 µM (inactive)
same,GI50,HOP-92,2.38 µM (inactive)
same,GI50,MDA-N,20.1 µM (inactive)
same,GI50,UO-31,3.55 µM (inactive)
same,GI50,CCRF-CEM,6.3 µM (inactive)
same,GI50,OVCAR-5,26.2 µM (inactive)
same,GI50,SK-OV-3,4.34 µM (inactive)
same,GI50,EKVX,1.58 µM (inactive)
same,GI50,MDA-MB-435,22.6 µM (inactive)
same,GI50,SF-539,2.12 µM (inactive)
same,GI50,UACC-62,14.5 µM (inactive)
same,GI50,Hs-578T,4.85 µM (inactive)
same,GI50,COLO 205,30.4 µM (inactive)
same,GI50,SK-MEL-5,6.93 µM (inactive)
same,GI50,HOP-62,3.52 µM (inactive)
COc1ccc(/C=C/c2cc(OC)c(OC)c(OC)c2)cc1O [E-COMBRETASTATIN A-4],GI50,IGROV-1,3.17 µM (inactive)
same,GI50,BT-549,8.95 µM (inactive)
same,GI50,TK-10,13.3 µM (inactive)
same,GI50,HT-29,7.89 µM (inactive)
same,GI50,KM-20L2,8.71 µM (inactive)
same,GI50,CAKI-1,6.71 µM (inactive)
same,GI50,UO-31,1.13 µM (inactive)
same,GI50,OVCAR-5,22.2 µM (inactive)
same,GI50,EKVX,8.73 µM (inactive)
